In patent US12383531B2, “PLA2 inhibitors for treatment of pathological conditions caused by hymenoptera envenomation, such as hemolysis, cerebral edema, and acute kidney injury” (Ophirex, Inc., priority 2016, dated 2025):
“Also recorded” adds a separate entry of the source.

Tests used:
[1] = system: venous human blood incubated with Boomslang (Dispholidus typus) venom; experiment: Hemolysis of ex vivo human blood treated with Boomslang venom (FIG. 5B); type: cell-based; conditions: Compound 4 1 uM with or without soluble simvastatin 1 uM, 90 minutes
[2] = system: A. contortrix venom sPLA2; experiment: sPLA2 chromogenic inhibition assay, A. contortrix venom; type: biochemical; conditions: chromogenic sPLA2 assay after 60 of incubation, read-out: IC50 for each venom inhibitor
bee venom sPLA2 [3] = biological target: T1, bee venom sPLA2 (Apis mellifera, UniProt P00630); experiment: biochemical; type: biochemical
V. berus venom sPLA2 = experiment: sPLA2 chromogenic inhibition assay, V. berus venom; type: biochemical; conditions: chromogenic sPLA2 assay after 60 of incubation, read-out: IC50 for each venom inhibitor
[4] = system: boomslang venom or bee venom; experiment: Venom-induced acute kidney injury in mice, boomslang venom or bee venom (FIG. 7); type: in vivo, mouse; conditions: sublethal envenomation; single dose at same time as venom; 24 hours
[5] = system: histamine production or release in human blood; experiment: Plasma histamine in human blood; type: cell-based; conditions: human blood from a donor prone to LRR; 10 uM
Procedure: In this example, 3 cc human blood from a donor prone to LRR was collected and shipped to Quest on ice pursuant to Quest collection protocol 36586 and incubated with (a) Mannitol+Compound 4 (10 uM), (b) Varespladib (10 uM), or (c) Mannitol alone (excipient). Samples were processed for plasma histamine levels, compared with the Mannitol-only control.

[6] = system: C. terrificus venom sPLA2; experiment: sPLA2 chromogenic inhibition assay, C. terrificus venom; type: biochemical; conditions: chromogenic sPLA2 assay after 60 of incubation, read-out: IC50 for each venom inhibitor
E. carinatus venom MP = E. carinatus venom MP inhibition; type: biochemical; conditions: 10 μM
[7] = system: Snake venom metalloprotease, C. atrox and E. carinatus; experiment: Snake venom metalloprotease inhibition for C. atrox and E. carinatus; type: biochemical; conditions: 10 μM; range over both venoms
C. atrox venom MP = C. atrox venom MP inhibition; type: biochemical; conditions: 10 μM
M. fulvius venom sPLA2 = M. fulvius venom sPLA2 inhibition; type: biochemical; conditions: 10 μM
bee venom sPLA2 [8] = biological target: T1, bee venom sPLA2; conditions: cited from earlier work
V. russelli venom sPLA2 = experiment: sPLA2 chromogenic inhibition assay, V. russelli venom; type: biochemical; conditions: chromogenic sPLA2 assay after 60 of incubation, read-out: IC50 for each venom inhibitor
C. atrox venom sPLA2 = experiment: sPLA2 chromogenic inhibition assay, C. atrox venom; type: biochemical; conditions: chromogenic sPLA2 assay after 60 of incubation, read-out: IC50 for each venom inhibitor
[9] = system: C. adamanteus venom sPLA2; experiment: sPLA2 chromogenic inhibition assay, C. adamanteus venom; type: biochemical; conditions: chromogenic sPLA2 assay after 60 of incubation, read-out: IC50 for each venom inhibitor
bee venom = experiment: Survival of mice envenomated with bee venom; type: in vivo, CD-1 mice; conditions: 5 mice; bee venom 5 mg/kg IV; 25 mg/kg varespladib SQ immediately after envenomation
[10] = system: whole bee (Apis mellifera) venom; experiment: Acute kidney injury in mice after whole bee venom (FIG. 8); type: in vivo, mouse; conditions: single dose Varespladib (LY315920) with bee venom, then oral methylvarespladib (LY333013) ad libitum in diet; kidneys examined 36 hours
[11] = system: venous human blood incubated with M. Fulvius venom; experiment: Hemolysis of ex vivo whole human blood treated with M. Fulvius venom (FIG. 5A); type: cell-based; conditions: inhibitor 1 uM with or without soluble simvastatin 1 uM, 90 minutes

T1 sequence (P00630 34-167 limits assumed): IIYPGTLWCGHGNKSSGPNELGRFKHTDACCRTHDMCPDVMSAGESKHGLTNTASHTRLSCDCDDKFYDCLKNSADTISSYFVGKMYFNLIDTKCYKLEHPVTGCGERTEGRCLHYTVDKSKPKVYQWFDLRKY

SMILES	IC50 [2] [nM]	inhibitory activity in vitro against bee venom sPLA2 (bee venom sPLA2 [3])	IC50 (V. berus venom sPLA2) [nM]	E. carinatus venom MP inhibition % effect (E. carinatus venom MP) [%]	Snake venom metalloprotease inhibition for C. atrox and E. carinatus [7] [%]	C. atrox venom MP inhibition % effect (C. atrox venom MP) [%]	M. fulvius venom sPLA2 inhibition % effect (M. fulvius venom sPLA2) [%]	also measured
NC(=O)c1ccc(Cc2ccccc2)cc1-c1cccc(CCC(=O)O)c1 [Compound 4, 3-(5′-Benzyl-2′-carbamoylbiphenyl-3-yl) propanoic acid]	88	very weak inhibitory activity; also recorded: virtually no effect	170					anti-hemolytic activity [1]: anti-hemolytic activity; IC50 (bee venom sPLA2 [3]): > 70000 nM; signs of acute kidney injury (gross kidney appearance) [4]: comparably minimal signs of acute kidney injury; Plasma Histamine [5]: 10.1 ng/mL; IC50 [6]: 670 nM
O=C(O)C[C@H](O)C[C@H](O)/C=C/c1c(C2CC2)nc2ccccc2c1-c1ccc(F)cc1 [ITAVASTATIN, Pitavastatin]				0.48	0.48 to 5.09	5.09		
CC[C@H](C)C(=O)O[C@H]1C[C@@H](C)C=C2C=C[C@H](C)[C@H](CC[C@@H]3C[C@@H](O)CC(=O)O3)[C@H]21 [LOVASTATIN, Lovastatin]				−1.89			11.09	
CC[C@H](C)C(=O)O[C@H]1CCC=C2C=C[C@H](C)[C@H](CC[C@@H]3C[C@@H](O)CC(=O)O3)[C@H]21 [MEVASTATIN, Mevastatin]				−1.89 to 3.82	−1.89 to 7.17	7.17	16.29	
CCc1c(C(=O)C(N)=O)c2c(OCC(=O)OC)cccc2n1Cc1ccccc1 [Me-Varespladib]	430	very weak inhibitory activity; also recorded: not potent inhibitors	170					performance in vitro against bee venom sPLA2 in earlier studies (bee venom sPLA2 [8]): performed extremely poorly; IC50 (V. russelli venom sPLA2): 80 nM; IC50 (C. atrox venom sPLA2): 200 nM; IC50 [9]: 360 nM
CC[C@H](C)C(=O)O[C@H]1C[C@H](O)C=C2C=C[C@H](C)[C@H](CC[C@@H](O)C[C@@H](O)CC(=O)O)[C@H]21 [PRAVASTATIN, Pravastatin]				4.02	2.27 to 4.02	2.27	6.9	
CCC(C)(C)C(=O)O[C@H]1C[C@@H](C)C=C2C=C[C@H](C)[C@H](CC[C@@H]3C[C@@H](O)CC(=O)O3)[C@H]21 [SIMVASTATIN, Simvastatin]				−0.20 to 4.61	−0.20 to 4.61	4.03	16.41	
CCc1c(C(=O)C(N)=O)c2c(OCC(=O)O)cccc2n1Cc1ccccc1 [Varespladib, ((3-(2-Amino-1,2-dioxoethyl)-2-ethyl-1-(phenylmethyl)-1H-indol-4-yl)oxy)acetic acid]	0.9	very weak inhibitory activity; also recorded: not potent inhibitors	0.8					IC50 (bee venom sPLA2 [3]): 12000 to 18000 nM; higher IC50 against bee venom PLA2 as compared to snake venom PLA2 (bee venom sPLA2 [3]): 5-45,000 fold; survival compared to controls (bee venom): uniformly prolonged survival; performance in vitro against bee venom sPLA2 in earlier studies (bee venom sPLA2 [8]): performed extremely poorly; protection from AKI (pigment nephropathy, hyperemia) [10]: excellent protection from AKI; anti-hemolytic activity (Hgb absorption spectra) [11]: remained unchanged with the addition of statin; signs of acute kidney injury (gross kidney appearance) [4]: minimal signs of acute kidney injury; Plasma Histamine [5]: 5.1 ng/mL; IC50 [6]: 21 nM; IC50 (V. russelli venom sPLA2): 0.4 nM; IC50 (C. atrox venom sPLA2): 0.7 nM; IC50 [9]: 0.8 nM
